Assay results from patent publication US11969401B2, “Compositions and methods for treating or limiting development of age-related macular degeneration” (Arizona Board of Regents on Behalf of The University of …, priority 2019, dated 2024).

The compounds below were run on retinal pigment epithelium (RPE) cells (assay: Circadian patterns of VEGF secretion by perfused RPE monolayers (ELISA, Cosinor fit)). Conditions: alternating 12-hour intervals, conclusion in words.
Assay type: cell-based
Experimental: The purpose of this study was to test whether retinal pigment epithelium (RPE) cells express vascular endothelial growth factor (VEGF) in a circadian manner. We tested the hypothesis that 12 hour alternating intervals of dopamine then melatonin combined with L-DOPA would induce RPE cells into a circadian rhythm that controlled VEGF expression. Methods: RPE monolayers were produced on snap-well filters, which were maintained in static culture conditions for at least six months, during which time they became pigmented and well differentiated. […] A baseline of VEGF secretion was established over a 3-week period. After the baseline was established, the cells were perfused with media containing 1 ? M dopamine for 12 hours, then media containing 1 ? M melatonin plus 1 ? M L-DOPA for the next 12 hours. […] Initiation of the next drug dilutes the previous over 12 hours while simultaneously ramping up the new drug. Cells were maintained in this circadian rhythm for at least three cycles. […] The amount of VEGF was plotted against the time of perfusion and fitted using the Cosinor method to find a length of circadian cycle and corresponding p-value for statistical analysis.

SMILES | effect on RPE VEGF secretion
N[C@@H](Cc1ccc(O)c(O)c1)C(=O)O [L-DOPA, 2-amino-3-(3,4-dihydroxyphenyl)propanoic acid] | antagonize dopamine effects
NCCc1ccc(O)c(O)c1 [dopamine] | increase RPE VEGF secretion
COc1ccc2[nH]cc(CCNC(C)=O)c2c1 [melatonin, Melatonin] | antagonize dopamine effects
